Experimental data published in patent US8524726B2, “Amido derivatives and their use as positive allosteric modulators of metabotropic glutamate receptors” (Addex Pharma, SA, priority 2007, dated 2013).

Assays:
[1] = molecular target: T1, recombinant human mGluR4a receptors (Homo sapiens, UniProt Q14833); assay: Fluorescent cell based Ca2+ mobilization assay (FLIPR) on HEK-293 cells expressing human mGluR4; conditions: HEK-293 cells expressing hmGluR4, Fluo-4, potentiation of EC25 glutamate; mean of at least three independent experiments in duplicate; read-out: Ca2+ Flux (mean EC50)
T1 construct: expressed in transfected cells
T1 sequence (Q14833 33-912): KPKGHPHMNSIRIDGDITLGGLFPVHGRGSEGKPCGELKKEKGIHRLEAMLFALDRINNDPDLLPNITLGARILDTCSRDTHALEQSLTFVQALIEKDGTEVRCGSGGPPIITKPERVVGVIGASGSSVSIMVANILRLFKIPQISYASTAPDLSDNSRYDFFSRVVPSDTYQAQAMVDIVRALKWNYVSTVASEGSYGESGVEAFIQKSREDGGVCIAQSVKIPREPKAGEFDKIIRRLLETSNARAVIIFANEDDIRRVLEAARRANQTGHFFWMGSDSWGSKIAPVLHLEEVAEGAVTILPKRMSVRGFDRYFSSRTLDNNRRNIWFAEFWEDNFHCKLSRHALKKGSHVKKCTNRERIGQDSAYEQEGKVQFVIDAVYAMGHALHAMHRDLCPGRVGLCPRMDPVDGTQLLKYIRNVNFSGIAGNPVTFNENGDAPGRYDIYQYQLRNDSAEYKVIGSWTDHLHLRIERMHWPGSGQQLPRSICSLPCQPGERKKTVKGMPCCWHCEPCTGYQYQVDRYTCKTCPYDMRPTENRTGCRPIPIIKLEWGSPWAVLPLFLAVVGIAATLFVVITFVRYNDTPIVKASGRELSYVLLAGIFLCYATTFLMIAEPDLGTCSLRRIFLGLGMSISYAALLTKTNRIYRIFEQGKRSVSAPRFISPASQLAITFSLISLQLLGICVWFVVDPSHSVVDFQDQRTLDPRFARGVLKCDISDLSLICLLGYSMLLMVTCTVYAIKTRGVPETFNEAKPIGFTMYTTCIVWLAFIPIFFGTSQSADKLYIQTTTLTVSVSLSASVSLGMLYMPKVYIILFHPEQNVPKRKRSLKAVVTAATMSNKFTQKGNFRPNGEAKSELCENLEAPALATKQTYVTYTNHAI
Excerpt: mGluR4 Assay on HEK-Expressing Human mGluR4
Their activity was examined on recombinant human mGluR4a receptors by detecting changes in intracellular Ca^2+ concentration, using the fluorescent Ca^2+-sensitive dye Fluo-4-(AM) and a Fluorometric Imaging Plate Reader (FLIPR, Molecular Devices, Sunnyvale, Calif.)
Transfection and Cell Culture
The cDNA encoding the human metabotropic glutamate receptor (hmGluR4), (accession number NM_000841.1, NCBI Nucleotide database browser), was subcloned into an expression vector containing also the hygromycin resistance gene. In parallel, the cDNA encoding a G protein allowing redirection of the activation signal to intracellular calcium flux was subcloned into a different expression vector containing also the puromycin resistance gene. […] Positive cellular clones expressing hmGluR4 were identified in a functional assay measuring changes in calcium fluxes in response to glutamate or selective known mGluR4 orthosteric agonists and antagonists
HEK-293 cells expressing hmGluR4 were maintained in media containing DMEM, dialyzed Fetal Calf Serum (10%), Glutamax™ (2 mM), Penicillin (100 units/ml), Streptomycin (100 μg/ml), Geneticin (100 μg/ml) and Hygromycin-B (40 μg/ml) and puromycin (1 μg/ml) at 37° C./5% CO2.
Fluorescent Cell Based-Ca^2+ Mobilization Assay
Human mGluR4 HEK-293 cells were plated out 24 hours prior to FLIPR^384 assay in black-walled, clear-bottomed, poly-L-ornithine-coated 384-well plates at a density of 25,000 cells/well in a glutamine/glutamate free DMEM medium containing foetal bovine serum (10%), penicillin (100 units/ml) and streptomycin (100 μg/ml) at 37° C./5% CO2.
On the day of the assay, the medium was aspirated and the cells were loaded with a 3 μM solution of Fluo-4-AM (LuBioScience, Lucerne, Switzerland) in 0.03% pluronic acid. After 1 hour at 37° C./5% CO2, the non incorporated dye was removed by washing cell plate with the assay buffer and the cells were left in the dark at room temperature for six hours before testing. All assays were performed in a pH 7.4 buffered-solution containing 20 mM HEPES, 143 mM NaCl, 6 mM KCl, 1 mM MgSO4, 1 mM CaCl2, 0.125 mM sulfapyrazone, 0.1% glucose.
After 10 s of basal fluorescence recording, various concentrations of the compounds of the invention were added to the cells. Changes in fluorescence levels were first monitored for 180 s in order to detect any agonist activity of the compounds. Then the cells were stimulated by an EC25 glutamate concentration for an additional 110 s in order to measure enhancing activities of the compounds of the invention. EC25 glutamate concentration is the concentration giving 25% of the maximal glutamate response.
The concentration-response curves of representative compounds of the present invention were generated using the Prism GraphPad software (Graph Pad Inc, San Diego, USA). The curves were fitted to a four-parameter logistic equation: (Y=Bottom+(Top-Bottom)/(1+10^((Log EC50−X)*Hill Slope) allowing determination of EC50 values.

| Structure (SMILES) | melting point | EC50 [1] |
| --- | --- | --- |
| O=C(COc1cccc(NC(=O)c2ccco2)c1)c1ccc(F)cc1 [Compound 2-2, Furan-2-carboxylic acid {3-[2-(4-fluoro-phenyl)-2-oxo-ethoxy]-phenyl}-amide] | 148 to 149 °C |  |
| O=C(Nc1cccc(F)c1)c1ccccn1 [Compound 1-4, N-(3-Fluorophenyl)picolinamide] | 74 to 75 °C |  |
| COc1cccc(NC(=O)c2csc(C)n2)c1 [Compound 2-4, N-(3-Methoxyphenyl)-2-methylthiazole-4-carboxamide] | 87 to 89 °C | 1000 to 10000 nM |
| O=C(Nc1cccc(Cl)c1)c1ccccn1 [Compound 1-3, N-(3-Chlorophenyl)picolinamide] |  | < 1000 nM |
| COc1cc(NC(=O)c2nccs2)ccc1F [Compound 2-18, N-(4-Fluoro-3-methoxyphenyl)thiazole-2-carboxamide] | 103 to 105 °C | 1000 to 10000 nM |
| O=C(COc1cccc(NC(=O)c2ccccn2)c1)c1cccc(F)c1 [Compound 2-11, N-(3-(2-(3-Fluorophenyl)-2-oxoethoxy)phenyl)picolinamide] | 118 to 121 °C | 1000 to 10000 nM |
| COc1ccccc1C(=O)COc1cccc(NC(=O)c2ccccn2)c1 [Compound 2-9, N-(3-(2-(2-Methoxyphenyl)-2-oxoethoxy)phenyl)picolinamide] | 136 to 137 °C | 1000 to 10000 nM |
| COc1cc(NC(=O)c2ccccn2)ccc1F [Compound 2-14, N-(4-Fluoro-3-methoxyphenyl)picolinamide] |  | < 1000 nM |
| COc1cccc(NC(=O)c2nccs2)c1 [Compound 2-5, N-(3-Methoxyphenyl)thiazole-2-carboxamide] | 53 to 57 °C | 1000 to 10000 nM |
| COc1cccc(NC(=O)c2ccncn2)c1 [Compound 2-16, N-(3-Methoxyphenyl)pyrimidine-4-carboxamide] | 119 to 122 °C | 1000 to 10000 nM |
| O=C(Nc1cccc(Cl)c1)c1ccc[nH]1 [Compound 1-5, N-(3-Chlorophenyl)-1H-pyrrole-2-carboxamide] | 138 to 140 °C | 1000 to 10000 nM |
| O=C(COc1cccc(NC(=O)c2ccccn2)c1)c1cccc(Cl)c1 [Compound 2-7, N-(3-(2-(3-Chlorophenyl)-2-oxoethoxy)phenyl)picolinamide] | 139 to 140 °C | 1000 to 10000 nM |
| COc1cccc(C(=O)COc2cccc(NC(=O)c3ccccn3)c2)c1 [Compound 2-10, N-(3-(2-(3-Methoxyphenyl)-2-oxoethoxy)phenyl)picolinamide] | 114.5 to 115.5 °C | 1000 to 10000 nM |
| COc1cc(NC(=O)c2cccc(F)n2)ccc1F [Compound 2-17, 6-Fluoro-N-(4-fluoro-3-methoxyphenyl)picolinamide] | 124 to 125 °C | 1000 to 10000 nM |
| O=C(Nc1cccc(OCC(=O)c2ccccc2F)c1)c1ccccn1 [Compound 2-15, N-(3-(2-(2-Fluorophenyl)-2-oxoethoxy)phenyl)picolinamide] | 98 to 101 °C | 1000 to 10000 nM |
| O=C(Nc1cccc(OCC(=O)c2ccccc2Cl)c1)c1ccccn1 [Compound 2-12, N-(3-(2-(2-Chlorophenyl)-2-oxoethoxy)phenyl)picolinamide] |  | 1000 to 10000 nM |
| O=C(Nc1cccc(OCCCc2ccccc2)c1)c1ccccn1 [Compound 2-8, N-(3-(3-Phenylpropoxy)phenyl)picolinamide] | 49 to 51 °C | 1000 to 10000 nM |
| COc1cccc(NC(=O)c2cc(C)on2)c1 [Compound 2-13, N-(3-Methoxyphenyl)-5-methylisoxazole-3-carboxamide] | 98 to 101 °C | 1000 to 10000 nM |
| O=C(Nc1cccc(Cl)c1)c1cccs1 [Compound 1-2, N-(3-Chlorophenyl)thiophene-2-carboxamide] | 139 to 140 °C | 1000 to 10000 nM |

More lines, now with the values ahead:

| melting point | EC50 [1] | Structure (SMILES) |
| --- | --- | --- |
| 142 to 150 °C |  | Cc1nc(C(=O)Nc2ccc(Oc3ncccn3)c(Cl)c2)cs1 [Compound 3-3, N-(3-Chloro-4-(pyrimidin-2-yloxy)phenyl)-2-methylthiazole-4-carboxamide] |
| 195 to 197 °C | < 1000 nM | O=C(Nc1ccc(Oc2ncccn2)c(Cl)c1)c1ccccn1 [Compound 3-2, N-(3-Chloro-4-(pyrimidin-2-yloxy)phenyl)picolinamide] |
| 92 to 94 °C | 1000 to 10000 nM | O=C(Nc1ccc(Oc2ccc(C(F)(F)F)cn2)c(Cl)c1)c1ccccn1 [Compound 3-8, N-(3-Chloro-4-(5-(trifluoromethyl)pyridin-2-yloxy)phenyl)picolinamide] |
| 78 to 80 °C |  | O=C(Nc1ccc(Oc2cccc(F)c2)c(Cl)c1)c1ccccn1 [Compound 3-12, N-(3-Chloro-4-(3-fluorophenoxy)phenyl)picolinamide] |
| 157 to 159 °C | < 1000 nM | N#Cc1ccc(Oc2ccc(NC(=O)c3ccccn3)cc2Cl)cc1 [Compound 3-15, N-(3-Chloro-4-(4-cyanophenoxy)phenyl)picolinamide] |
| 92 to 94 °C | 1000 to 10000 nM | O=C(Nc1ccc(N2CCN(Cc3ccccc3)CC2)c(Cl)c1)c1ccccn1 [Compound 4-5, N-(4-(4-Benzylpiperazin-1-yl)-3-chlorophenyl)picolinamide] |
| 156 to 158 °C |  | CC(C)C(=O)N1CCN(c2ccc(NC(=O)c3ccccn3)cc2Cl)CC1 [Compound 4-2, N-(3-Chloro-4-(4-isobutyrylpiperazin-1-yl)phenyl)picolinamide] |
| 176 to 179 °C | 1000 to 10000 nM | CCC(=O)N1CCN(c2ccc(NC(=O)c3ccccn3)cc2Cl)CC1 [Compound 4-3, N-(3-Chloro-4-(4-propionylpiperazin-1-yl)phenyl)picolinamide] |
| 254 to 260 °C | < 1000 nM | O=C(Nc1ccc(Oc2ccccn2)c(Cl)c1)c1ccccn1 [Compound 3-5, N-(3-Chloro-4-(pyridin-2-yloxy)phenyl)picolinamide] |
| 102 to 104 °C |  | O=C(Nc1ccc(Oc2cc(F)ccc2F)c(Cl)c1)c1ccccn1 [Compound 3-6, N-(3-Chloro-4-(2,5-difluorophenoxy)phenyl)picolinamide] |
| 203 to 205 °C |  | COc1cc(NC(=O)c2ccccn2)ccc1Oc1ncccn1 [Compound 3-9, N-(3-Methoxy-4-(pyrimidin-2-yloxy)phenyl)picolinamide] |
| 223 to 228 °C |  | N#Cc1cccnc1Oc1ccc(NC(=O)c2ccccn2)cc1Cl [Compound 3-16, N-(3-Chloro-4-(3-cyanopyridin-2-yloxy)phenyl)picolinamide] |
| 104 to 105 °C |  | O=C(Nc1ccc(Oc2ccc(F)cc2)c(Cl)c1)c1ccccn1 [Compound 3-13, N-(3-Chloro-4-(4-fluorophenoxy)phenyl)picolinamide] |
| 161 to 163 °C | 1000 to 10000 nM | O=C(Nc1ccc(N2CCN(C(=O)c3ccccc3)CC2)c(Cl)c1)c1ccccn1 [Compound 4-4, N-(4-(4-Benzoylpiperazin-1-yl)-3-chlorophenyl)picolinamide] |
| 154 °C | 1000 to 10000 nM | O=C(Nc1ccc(Oc2ncccn2)c(Cl)c1)c1nccs1 [Compound 3-4, N-(3-Chloro-4-(pyrimidin-2-yloxy)phenyl)thiazole-2-carboxamide] |
